Four compounds from PubChem BioAssay AID1918932 (Molecular Pharmacology Branch, DTP, NCI, 2023) can be followed below.

pIC50: −log10 of the molar value. Where “and” joins values, the source holds several entries; their conditions need not be identical. Equal entries are not always repeated.

In this assay the test system is 171881-019-R-J1-PDC complex spheroid viability. Kind of assay: Anticancer human tumor 171881-019-R-J1-PDC patient-derived invasive breast carcinoma cell line growth inhibition. The note with it: for viability, T/C: stronger effect = lower value. From the text: Multicellular complex tumor spheroid response to LSD1 Inhibitor Iadademstat in combination with a variety of drugs and investigational agents in selected tumor cell lines
The current study was undertaken to assess response to LSD1 inhibitors in combination with standard-of-care drugs and investigational agents in solid tumor complex spheroid models as well as in the K-562 leukemia. Complex spheroids include a stromal component modeled by human endothelial cells (HUVEC) and fibroblasts modeled by human mesenchymal stem cells (MSCs). The concentration ranges selected for each drug and investigational agent were based upon clinically achievable concentrations if the clinical Cmax of the agent was known.
Compounds. The drugs and investigational agents used in this study are listed on Table 1. All of the agents used, including staurosporine (NSC755774) and gemcitabine (NSC613327), were obtained from the Developmental Therapeutics Program, NCI. FDA-approved anticancer drugs are available from the NCI at http://dtp.nci.nih.gov/branches/dscb/oncology_drugset_explanation.html. Drugs and investigational agents were >95% pure by proton nuclear magnetic resonance (NMR) and liquid chromatography/mass spectrometry (LC/MS). Stock solutions were prepared at 400x in DMSO, stored at -70 degrees C, and diluted in fresh medium prior to their use. The final concentration of DMSO in cell culture wells never exceeded 0.25% (v/v). The FDA-approved anticancer drug set is available from the Developmental Therapeutics Program at https://dtp.cancer.gov/organization/dscb/obtaining/available_plates.htm. All drugs and investigational agents were tested over a range starting from a high concentration at or near the clinical Cmax and decreasing in half-log increments. If the clinical Cmax for an agent had not been determined, the highest concentration tested was 10 microM.
Cell Lines. The patient-derived cancer cell (PDC) lines: 292921-168-R-J2-PDC, K24384-001-R-PDC, and 521955-158-R2-J5-PDC pancreatic carcinomas, 556581-035-R-J1 ovarian carcinoma, 324938-238-R-J1-PDC, 855422-203-R-J1-PDC and 883617-216-R-J1-PDC urothelial bladder carcinomas, 743489-274-T-PDC renal cell carcinoma, 138582-R-J1 Merkel cell tumor, K60290-347-R-J1 and K57222-313-R-J1-PDC glioblastomas, 653999-131-R-J2-PDC, LG0703-F948-PDC, and 349418-098-R-PDC non-small cell lung carcinomas, 885512-296-R-J2-PDC, 171881-019-R-J1-PDC breast carcinomas and 186277-243-T-J2-PDC and 233499-124-R-J2-PDC colon carcinomas were obtained from the NCI Patient-Derived Models Repository (PDMR, https://pdmr.cancer.gov). The established cell lines NCI/ADR-RES (RRID:CVCL_14520 and OVCAR-5 (RRID:CVCL_1628) ovarian carcinomas, 786-O (RRID:CVCL_1051) and A498 (RRID:CVCL_A498) renal cell carcinoma, NCI-H211 (ATCC, cat. CRL-5824; RRID:CVCL_1529), NCI-H196 (ATCC, cat. CRL-5823, RRID:CVCL_1509), SW 1271 (ATCC, cat. CRL-2177, RRID:CVCL_1716) and NCI-H1876 (ATCC, cat. CRL-5902, RRID:CVCL_1503) small cell lung carcinomas, MDA-MB-231 (RRID:CVCL_0062) and MDA-MB-468 (RRID:CVCL_0419)breast carcinomas (10-12). Pooled donor human umbilical vein endothelial cells (HUVEC, Lonza, cat. CC-2519) and human mesenchymal stem cells (hMSC, Lonza, cat. PT-2501) were purchased from Lonza (Walkersville, MD).
Cell Culture. All cells were maintained in an incubator at 37 degrees C and 5% CO2 with 95% humidity. The PDC lines were cultured according to standard operating procedures established by the NCI PDMR (https://pdmr.cancer.gov). Briefly all PDCs were thawed and cultured in Matrigel-coated flasks prepared with a working solution of 1X Ham's F-12 nutrient mix, without supplementation (Invitrogen, Waltham, MA, cat. 11765054), 100 U/mL penicillin-streptomycin (Invitrogen, cat. 15140122), and 2.5% Matrigel (Corning Inc., Corning, NY, cat. 354248) for the first three passages. […]

Setting [1] is: curve of first compound, second compound 0.1 µM.
The mark [2] stands for this setting: curve of first compound, second compound 0.316 µM.
The mark [3] stands for this setting: curve of first compound, second compound 1 µM.
Setting [4] is: curve of first compound, second compound 3.16 µM.
The mark [5] stands for this setting: curve of first compound, second compound 10 µM.
Where [6] appears, read: second compound 0.1 µM, first compound 0.00949 µM.
Where [7] appears, read: second compound 0.1 µM, first compound 0.03 µM.
The mark [8] stands for this setting: second compound 0.1 µM, first compound 0.0949 µM.
Where [9] appears, read: second compound 0.1 µM, first compound 0.3 µM.
Where [10] appears, read: second compound 0.316 µM, first compound 0.00949 µM.
Where [11] appears, read: second compound 0.316 µM, first compound 0.03 µM.
Where [12] appears, read: second compound 0.316 µM, first compound 0.0949 µM.
[13] abbreviates: second compound 0.316 µM, first compound 0.3 µM.
Setting [14] is: second compound 1 µM, first compound 0.00949 µM.
Where [15] appears, read: second compound 1 µM, first compound 0.03 µM.
The mark [16] stands for this setting: second compound 1 µM, first compound 0.0949 µM.
Where [17] appears, read: second compound 1 µM, first compound 0.3 µM.
[18] abbreviates: second compound 3.16 µM, first compound 0.00949 µM.
Where [19] appears, read: second compound 3.16 µM, first compound 0.03 µM.
The mark [20] stands for this setting: second compound 3.16 µM, first compound 0.0949 µM.
The mark [21] stands for this setting: second compound 3.16 µM, first compound 0.3 µM.
Setting [22] is: second compound 10 µM, first compound 0.00949 µM.
Setting [23] is: second compound 10 µM, first compound 0.03 µM.
Where [24] appears, read: second compound 10 µM, first compound 0.0949 µM.
Setting [25] is: second compound 10 µM, first compound 0.3 µM.
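Further: spheroids exposed to agents for 7 days after 3 days growth.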

As a reminder, the pIC50 is the negative decadic logarithm of the IC50, by convention in mol/L. A word on the viability, T/C: it is the ratio of treated to control. For the compound `Nc1ccn(C2OC(CO)C(O)C2(F)F)c(=O)n1` (centres undefined) + NC1CC1c1ccc(-c2cccc(O)c2)cc1, the negative-log IC50 (pIC50) is, setting by setting: under setting [1], less than 6.52; under setting [2], less than 6.52; under setting [3], less than 6.52; under setting [4], less than 6.52; under setting [5], less than 6.52. In addition, the viability, T/C by setting is: (second compound 0.1 µM, first compound 0.000949 µM) 65.1%; (second compound 0.1 µM, first compound 0.003 µM) 61.8%; under setting [6], 57.8%; under setting [7], 61.2%; under setting [8], 65%; under setting [9], 64.1%. The viability, T/C runs as follows: (second compound 0.316 µM, first compound 0.000949 µM) 70.9%; (second compound 0.316 µM, first compound 0.003 µM) 63.8%; under setting [10], 59.7%; under setting [11], 60.9%; under setting [12], 66.6%; under setting [13], 64.1%. The viability, T/C (second compound 1 µM, first compound 0.000949 µM) is 76.6%; the viability, T/C (second compound 1 µM, first compound 0.003 µM) was 62.6%; the viability, T/C under setting [14] is 59.5%; the viability, T/C under setting [15] was 62.2%; the viability, T/C under setting [16] is 62%; the viability, T/C under setting [17] is 63.8%. Further, the viability, T/C is, setting by setting: (second compound 3.16 µM, first compound 0.000949 µM) 74.8%; (second compound 3.16 µM, first compound 0.003 µM) 58.3%; under setting [18], 57.8%; under setting [19], 56.6%; under setting [20], 60.2%; under setting [21], 63.2%. Besides, the viability, T/C (second compound 10 µM, first compound 0.000949 µM) is 65.7%; the viability, T/C (second compound 10 µM, first compound 0.003 µM) is 61.2%; the viability, T/C under setting [22] is 52.4%; the viability, T/C under setting [23] was 55.6%; the viability, T/C under setting [24] was 59.1%; the viability, T/C under setting [25] was 56%.

On to `COc1cc(C2c3cc4c(cc3C(OC3OC5COC(C)OC5C(O)C3O)C3COC(=O)C23)OCO4)cc(OC)c1O` (centres undefined) + NC1CC1c1ccc(-c2cccc(O)c2)cc1, for which the pIC50 runs as follows: under setting [1], 6.12; under setting [2], 6.00; under setting [3], 6.10; under setting [4], 6.26; under setting [5], 6.39. Moreover, the viability, T/C under setting [6] is 102%; the viability, T/C under setting [7] is 97%; the viability, T/C under setting [8] is 74%; the viability, T/C under setting [9] was 64%; the viability, T/C (second compound 0.1 µM, first compound 0.949 µM) is 48.3%; the viability, T/C (second compound 0.1 µM, first compound 3 µM) was 29.2%. In addition, the viability, T/C was 105% under setting [10]; 101% under setting [11]; 80.8% under setting [12]; 69.6% under setting [13]; 51.4% (second compound 0.316 µM, first compound 0.949 µM); 33.3% (second compound 0.316 µM, first compound 3 µM). Besides, the viability, T/C is, setting by setting: under setting [14], 105%; under setting [15], 95.3%; under setting [16], 84.9%; under setting [17], 66.4%; (second compound 1 µM, first compound 0.949 µM) 46.9%; (second compound 1 µM, first compound 3 µM) 28.1%. Moreover, the viability, T/C is 103% under setting [18]; 99.9% under setting [19]; 78.7% under setting [20]; 59% under setting [21]; 43.6% (second compound 3.16 µM, first compound 0.949 µM); 27.9% (second compound 3.16 µM, first compound 3 µM). Besides, the viability, T/C reads like this: under setting [22], 84.3%; under setting [23], 78.2%; under setting [24], 69.1%; under setting [25], 51.3%; (second compound 10 µM, first compound 0.949 µM) 41.4%; (second compound 10 µM, first compound 3 µM) 27.4%.

Regarding `O=C(c1cc(Cc2n[nH]c(=O)c3ccccc23)ccc1F)N1CCN(C(=O)C2CC2)CC1`, the viability, T/C runs as follows: (compound 0.0316 µM) 90.8% and 96.5%; (compound 0.1 µM) 94.5% and 103%; (compound 0.316 µM) 83.5% and 95.9%; (compound 1 µM) 91.6% and 83%; (compound 3.16 µM) 82.8% and 50.5%; (compound 10 µM) 101% and 21.5%. Moreover, the negative-log IC50 (pIC50) (curve of compound) was < 5.00 and 5.49.

For the compound `NS(=O)(=O)OCC1CC(n2ccc3c(NC4CCc5ccccc54)ncnc32)CC1O` (centres undefined), the viability, T/C was 101% and 40.4% (compound 0.00949 µM); 44.4% and 34.8% (compound 0.03 µM); 25.8% and 27.8% (compound 0.0949 µM); 24.2% and 25.3% (compound 0.3 µM); 25.5% and 29.9% (compound 0.949 µM); 22.4% and 21.6% (compound 3 µM). The negative logarithm of the IC50 (pIC50) (curve of compound) is 7.57 and > 8.02.
